PubChem BioAssay (NCI)
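Briefly, cells in 96-well plates were exposed to five compound concentrations for 48 h, and endpoints were estimated by linear interpolation. Abbreviation: GI50, concentration required for 50% inhibition of growth. The concentration for full growth arrest is given as TGI.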

Experiments:
Experiment in all cases: growth of human tumour cells (NCI), 48 h
HCT-15 colon = test system: HCT-15 colon
HOP-62 NSCLC = test system: HOP-62 NSCLC
HS 578T breast = test system: HS 578T breast
K-562 leukemia = test system: K-562 leukemia
M14 melanoma = test system: M14 melanoma
MDA-MB-435 = test system: MDA-MB-435
NCI-H226 lung = test system: NCI-H226 lung
OVCAR-3 ovarian = test system: OVCAR-3 ovarian
PC-3 prostate = test system: PC-3 prostate
SK-MEL-2 melanoma = test system: SK-MEL-2 melanoma

Structure (SMILES)	TGI (HCT-15 colon) [µM]	TGI (HOP-62 NSCLC) [µM]	TGI (HS 578T breast) [µM]	TGI (K-562 leukemia) [µM]	TGI (M14 melanoma) [µM]	TGI (MDA-MB-435) [µM]	TGI (NCI-H226 lung) [µM]	TGI (OVCAR-3 ovarian) [µM]	TGI (PC-3 prostate) [µM]	TGI (SK-MEL-2 melanoma) [µM]	GI50 (HCT-15 colon) [µM]	GI50 (HOP-62 NSCLC) [µM]	GI50 (HS 578T breast) [µM]	GI50 (K-562 leukemia) [µM]	GI50 (M14 melanoma) [µM]	GI50 (MDA-MB-435) [µM]	GI50 (NCI-H226 lung) [µM]	GI50 (OVCAR-3 ovarian) [µM]	GI50 (PC-3 prostate) [µM]	GI50 (SK-MEL-2 melanoma) [µM]
Nc1ccc(Cc2ccc(N)c(C(=O)O)c2)cc1C(=O)O	> 100	> 100	> 100	> 100	> 100	> 100	> 100	> 100	> 100	> 100										
CC12OC(C(=O)C13CCC3)C1C(=O)c3c(O)ccc(O)c3C(=O)C12 (configuration not stated)	3.4	15.6	17.6	10.3	2.04	5.81	> 100	2.71	9.09	> 100	0.952	3.01	4.38	1.27	0.669	2.3	> 100	0.62	2.72	14.1
CC(NC(=O)c1ccc(OP(=O)(OCc2ccc([N+](=O)[O-])o2)N(C)CCCCCl)cc1)c1ccc(OCC2CCCCC2)c(C(N)=O)c1 (configuration not stated)	8.14	36.7	> 41.6	18	22.7	6.3	26.2	15.7	49.1	14.5										
COc1cc(/C=C2\CC3C4CC[C@H]5C[C@@H](O)CC[C@]5(C)C4CC[C@]3(C)\C2=N\O)cc(OC)c1OC (some centres not stated)	> 100	38.9	75.7	> 100	37.3	34.8	45.1	11	55.1	31.7										
COc1cc(S(=O)(=O)Nc2ccc(-c3csc(/N=C\c4cccc(Oc5ccccc5)c4)n3)cc2)ccc1Cl	> 100	> 100	> 100	77	> 100	> 100	> 100	> 100	> 100	> 100										
O=C(NN1CCCCC1)c1cc2cc(CCl)ccc2oc1=O	39.9	40.5	36.4	48.1	49.4	42.1	45.3	39.3	30.4	28.9										
Nc1csc(-c2scc3c2OCCO3)c1N	35.1	42.6	> 100	87.4	35.2	36.1	42.9	36.1	62.5	40										
C/C=C/C(O)P(=O)(OC)OC (configuration not stated)	1.06	2.23	0.915	2.63	0.463	0.802	1.39	0.783	1.43	1										
Cc1cc(=O)[nH]c(S(=O)(=O)NC(=O)Nc2cccc(Cl)c2)n1	> 100	> 100	> 100	> 100	> 100	> 48.3	> 100	> 100	> 100	> 100										
COc1cc2cc[n+](C)c(Cc3ccc(Oc4cc(Cc5c6cc(OC)c(OC)cc6cc[n+]5C)ccc4OC)cc3)c2cc1OC	> 100	> 100	> 100	> 100	> 100	> 100	> 100	> 100	> 100	> 100										
CN(CCCNC(=O)c1nn(-c2ccccc2)c2c1Cc1ccccc1-2)CCCNC(=O)c1nn(-c2ccccc2)c2c1Cc1ccccc1-2	3.1			2.17	2.61	2.87		3.13	3.09	2.69										
Cc1c2ccccc2cc2cccc[n+]12	> 100	> 100	73	> 100		> 100		> 100	> 100	> 100										
c1ccc(C[N+]23C(CC[C@H]2c2ccccc2)CC[C@H]3c2ccccc2)cc1 (some centres not stated)		> 100	> 100	> 100	93	54.8	87.8	90	> 100	> 100										
COc1ccc2c3c([nH]c2c1)[C@H](C=C(C)C)N1C(=O)[C@@H]2CCCN2C(=O)[C@@H]1C3	> 100	> 100	> 100	> 100	> 100	> 100	> 100	> 100	> 100	> 100										
CCCCSCCC(N)P(=O)(O)O (configuration not stated)	> 100	> 100	> 100	> 100	> 100	> 100	> 100	> 100	> 100	> 100										
C[C@]12O[C@@]3(C)O[C@@]3(C)[C@]3(C)O[C@]3(C)[C@@]1(C)O2	> 100	> 100	> 100	> 100	> 100	> 100	> 100		> 100	> 100										
Fc1c(F)c(F)c(CSc2nc3ccccc3[nH]2)c(F)c1F	> 100	> 100	> 100	> 100	> 100	> 100	> 100	> 100	> 100	> 100										
CC(CCCCNC(=O)OC(C)(C)C)NC(=O)NC(C)CCCCNC(=O)OC(C)(C)C (configuration not stated)	> 100	> 100	> 100	> 100	> 100	> 100	> 100	> 100	> 100											
